Experiment [1] has as its system plasma malondialdehyde (MDA). The experiment can be described thus: Plasma MDA suppression (PD) in MCAO/R rats. As to conditions: iv IMM-H004 citrate 10 mg/kg after reperfusion. In kind it is in vivo, rat. The protocol: The plasma pharmacokinetics (PK) and pharmacodynamics (PD) of IMM-H004 and IMM-H004G were investigated in a cerebral ischemia-reperfusion rat model produced by middle cerebral artery occlusion/reperfusion (MCAO/R) after iv administration of IMM-H004. In brief, rats underwent a 1-h MCAO and then received IMM-H004 citrate (10 mg/kg, dissolved in saline to yield a concentration of 2 mg/ml) immediately after reperfusion, an effective dosing time as reported ([Zuo et al., 2015]; [Yang et al., 2017]). For sham surgery, all the arteries were exposed for the surgical period, but the filament was not inserted into the MCA. Blood samples were collected through external jugular vein cannula into heparinized tubes at 0.033, 0.167, 0.5, 1, 2, 4, 6, 8, 12, 24, 36, and 48 h postdose for IMM-H004 and IMM-H004G detection (50 μL of blood at each time point) and at 0.5, 1, 2, 4, 7, and 10 h postdose for malondialdehyde (MDA) detection (80 μL of blood at each time point). Plasma was immediately separated by centrifugation at 900×g for 5 min. Plasma concentrations of IMM-H004 and IMM-H004G in ischemia-reperfusion rats were determined by LC-MS/MS analysis. The PK parameters were calculated by noncompartmental analysis using WinNonlin Version 6.1 (Pharsight, Mountain View, CA). Plasma MDA concentrations in ischemia-reperfusion and sham rats within 24 h were estimated by enzyme-linked immunosorbent assay.

Another experiment has as its system MCAO/R rats. The experiment can be described thus: Neuroprotection in transient MCAO/R rats (infarct volume, neurological score). It is filed as in vivo, rat. Conditions: 10 mg/kg iv after reperfusion, 24 h, vs model. An excerpt: Transient MCAO/R was applied to compare the neuroprotection of IMM-H004 and IMM-H004G. Rats were fasted overnight with free access to water and randomly assigned to different groups. Rats were anesthetized with a mixture of 5% isoflurane and 95% oxygen and maintained with a mixture of 3% isoflurane and 97% oxygen during the surgical procedure. A 4-0 nylon thread, the tip of which was burned (diameter 0.36 mm), was inserted into the right internal carotid artery and advanced until the origin of the right MCA was occluded. After 60 min of the occlusion, the thread was withdrawn to allow reperfusion, and then the rats were returned to the chamber. Saline or edaravone at dose of 6 mg/kg or IMM-H004 citrate and IMM-H004G at dose of 10 mg/kg (dissolved in saline to yield a concentration of 2 mg/ml) were administered by intravenous injection immediately after reperfusion.
The rats were assessed for neurologic deficits at 24 h after reperfusion according to Zea Longa’s five-point scale. […] The animals without symptoms of neurological impairment or dying after the surgery were rejected. All animals were killed 24 h after reperfusion. Brains of the animals were removed and cut into 2 mm-thick slices, for a total of six slices per animal. The slices were immersed in a 2% solution of 2,3,5-triphenyltetrazolium chloride in phosphate buffered saline at 37°C for 20 min and then fixed in 4% formaldehyde overnight. Images of the slices were obtained with a scanner and a computer. The infarct area and the total area were calculated by tracing the areas on the computer screen with Image J. The percentage of the infarct volume was expressed as the infarct volumes (white parts)/the whole volume of the cortex.

The next experiment has as its system PC12 cells. The experiment can be described thus: Neuroprotection in oxygen-glucose deprivation injured PC12 cells (MTT cell viability). As to conditions: 1 and 10 μM, 24 h, MTT, vs model group. It is filed as cell-based. The method, then: The neuroprotective activity of IMM-H004 and IMM-H004G was evaluated on PC12 cells damaged by oxygen-glucose deprivation (OGD). PC12 cells were purchased from the American Type Culture Collection. Cultures were maintained at 37°C in 5% CO2 in a humidified incubator. For cell viability assay, PC12 cells were incubated in 96-well plates at a density of 5 × 10^4/ml for 24 h. In the sham group, PC12 cells were cultured in Dulbecco’s modified eagle medium supplemented with 5% fetal bovine serum and 5% equine serum (Gibco, USA). In the OGD group, PC12 cells were cultured in glucose-free Earle’s balanced salt solution supplemented with 15 mM Na2S2O4 for 2 h and then incubated with compounds of nerve growth factor (NGF, 10 μM), edaravone (10 μM, 50 μM), IMM-H004 (1 μM, 10 μM), and IMM-H004G (1 μM, 10 μM), respectively. After 24 h of incubation, MTT (5 mg/ml) was added into the cell cultures and incubated for an additional 4 h. Then the supernatant was removed and 100 μL DMSO was added. Absorbance was measured using an Ultramark microplate reader at a wavelength of 562 nm. The cell viability was expressed as a percentage of the absorbance density value of control cultures.

This is an account of results in publication PMC6584114, “Metabolism of IMM-H004 and Its Pharmacokinetic-Pharmacodynamic Analysis in Cerebral Ischemia/Reperfusion Injured Rats” (Frontiers in Pharmacology, 2019).

Turning to `COc1cc(O)cc2oc(=O)c(N3CCN(C)CC3)c(C)c12` [IMM-H004, 7-hydroxy-5-methoxy-4-methyl-3-(4-methylpiperazin-1-yl)-coumarin], the “duration of plasma MDA lowering after administration” value in experiment [1] was “at least 10 h”. In addition, the “effect on plasma MDA level” value in experiment [1] (vs MCAO/R group) is reported as “significantly lower the increased MDA level at 2 h”. In the experiment with MCAO/R rats, the infarct volume entry is “markedly reduced (p < 0.01)” and the neurological test score entry is recorded as “significant improvement (p < 0.01)”. In addition, the “cell viability of OGD-injured PC12 cells” value in the experiment on PC12 cells is “significant (p < 0.05) preservation of viability”.
